Source: US20140018242A1, “METHOD OF CROP ENHANCEMENT” (SYNGENTA PARTICIPATIONS AG, priority 2010, published 2014)
Values belong to the compound of their own block, whether it stands above or below them.

Legend:
[1] = tested on: French beans (Phaseolus vulgaris); test: Soil application to French beans, effects on flowering (BBCH) and plant physiology (NDVI, NIR); format: in vivo; set-up: NIR (Near infrared band reflectance): unit not given here; conditions: 0.01 mg AI per plant drench, mean of 4 reps; for BBCH (plant growth stage): 15DAA, check 57; for NDVI (Normalized difference vegetative index) / NIR (Near infrared band reflectance): 25DAA; for NDVI (Normalized difference vegetative index): check 0.431; for NIR (Near infrared band reflectance): check 4.32
Description: Four two week old French bean plants were treated with 0.01 mg Al per plant as soil application (drench). Plants were kept under glasshouse conditions at 22° C. with a photo-period of 14 h. 15DAA the development stage of blossoms was assessed. 25DAA the photosynthetic capacity of plants (NDVI, NIR) was measured.

Soybeans (Glycine max) [2] = test: Foliar application to soybeans, effects on yield (number and size of pods, root parameters); format: in vivo; conditions: 68 g AI/ha foliar, 29DAA; for No. of root tips, Mean (in %) relative to check / Root length, Mean (in %) relative to check: WinRhizo; for Mean no. of pods per plant, only pods >20 mm: check 1.8; for Mean no. of pods per plant, all pods considered: check 5.4; for pod length - sum per trmt (mm), only pods >20 mm: check 276; for pod length - sum per trmt (mm), all pods considered: check 452
Description: Three week old soybean plants (5 replicates) were sprayed with respective test solutions. Test solutions contained the formulated test compound and the adjuvant Mero (0.1% v/v). Plants were kept under glasshouse conditions at 22° C. with a photo-period of 14 h. 29d after application the individual number and size of pods per plant were measured. Additionally, the overall root system of individual plants was scanned and analysed by the image analysis software ‘WinRhizo’ (Regent Instruments Inc., 2009). […] The average number of taller pods (related to number of seeds) was increased.

Soybeans (Glycine max) [3] = test: Foliar application to soybeans, effects on water consumption, plant height, chlorophyll content; format: in vivo; conditions: soybean, 26 days after spray; for water consumption: foliar spray 100 ga/ha (EC050) 21 days after sowing, no watering after spray; for plant height / chlorophyll content: foliar spray 100 ga/ha (EC050); for chlorophyll content: third trifoliate-leaf
Description: Soybean plants were grown in a climate chamber at 22° C. during 14 h daytime and 20° C. during 10 h night at 70% rel.humidity. Plants were sprayed 21 days after sowing with a 100 ga/ha of the test compound, formulated as a standard EC050. Water status was adjusted befor spray for all pots, and plants not watered anymore after spray. After growing further 26 days in the controlled environment, the plant height, chlorophyll content of the third trifoliate-leaf, and water consumption was determined.

Spring-wheat = test: Foliar application to spring-wheat, effects on water consumption, plant height; format: in vivo; conditions: 26 days after spray; for water consumption: foliar spray 50 ga/ha (EC050) 21 days after sowing, no watering after spray; for plant height: foliar spray 50 ga/ha (EC050)
Description: Wheat plants were grown in a climate chamber at 18° C., 14 h daytime and 10 h night, at 70% rel.humidity. Plants were sprayed 21 days after sowing with a 50 ga/ha of the test compound, formulated as a standard EC050. Water status was adjusted before spray for all pots and plants not watered anymore after spray. After growing further 26 days in the controlled environment the plant height, and water consumption was determined.

Soybeans (Glycine max) [4] = test: Soil application (drench) to soybeans in rhizoboxes, effects on root system and shoot; format: in vivo; conditions: 30DAA; for Stem thickness (mm) below respective leaf, Mean / leaf area (cm^2), Mean: 0.12 mg AI per plant drench
Description: Three two-week old soybean plants were transplanted to ‘rhizoboxes’ (ca. 12 L soil volume). One day later 0.12 mg Al of compound T1.070, wherein G is CO2Et, were applied (drench) to each plant. Plants were kept under glasshouse conditions at 22° C. with a photo-period of 14 h. 30 DAA the entire root system per rhizobox was scanned and analysed by the image analysis software ‘WinRhizo’ (Regent Instruments Inc., 2009).

Barley (Hordeum vulqare) = test: Foliar application to barley, plant growth effects (plant height, tillers); format: in vivo; conditions: 12.5 ppm foliar, 9DAA; for av. tillers per plant: check 0
Description: Five replicates (pots with three 10d old barley plants each) were sprayed with respective test solutions. Test solutions contained the formulated test compound and the adjuvant Mero (0.1% v/v). Plants were kept under glasshouse conditions at 22° C. with a photo period of 14 h. 9d after application the average plant height per replicate was measured and the number of tillers per replicate was counted. […] Additionally, the number of tillers were increased.

[5] = soybean, drench 0.12 mg AI per plant
[6] = soybean, drench 0.12 mg AI per plant, entire root system per rhizobox, WinRhizo

melting point: 88 to 92 °C
Compound: CON1CCC2(CC1)C(O)=C(c1c(C)cc(Cl)cc1C)C(=O)N2OC [Compound P2ii.102]

melting point: 176 to 178 °C
Compound: COCON1C(=O)C(c2c(C)cc(Cl)cc2C)=C(O)C12CCN(OC)CC2 [Compound P2ii.104]

melting point: 137 to 139 °C
Compound: CON1CCC2(CC1)C(O)=C(c1c(C)cc(Cl)cc1C)C(=O)N2OC1CCCO1 (centres unmarked) [Compound P2ii.105]

Compound: CON1CCC2(CC1)C(O)=C(c1c(C)cc(C)cc1C)C(=O)N2C [Compound T1.070]
BBCH (plant growth stage) [1]: 59
NDVI (Normalized difference vegetative index) [1]: 0.418
NIR (Near infrared band reflectance) [1]: 3.81

Compound: CON1CCC2(CC1)NC(=O)C(c1cc(C)ccc1C)=C2O [Compound T1iii.030]
BBCH (plant growth stage) [1]: 58
NDVI (Normalized difference vegetative index) [1]: 0.486
NIR (Near infrared band reflectance) [1]: 4.98

Compound: CON1CCC2(CC1)NC(=O)C(c1c(C)cc(C)cc1C)=C2O [Compound T1iii.70]
BBCH (plant growth stage) [1]: 58
NDVI (Normalized difference vegetative index) [1]: 0.443
NIR (Near infrared band reflectance) [1]: 4.92

Compound: COCON1C(=O)C(c2cc(C)ccc2C)=C(O)C12CCN(OC)CC2 [Compound T20ii.030]
BBCH (plant growth stage) [1]: 58
NDVI (Normalized difference vegetative index) [1]: 0.427
NIR (Near infrared band reflectance) [1]: 4.07

Compound: COCON1C(=O)C(c2c(C)cc(C)cc2C)=C(O)C12CCN(OC)CC2 [Compound T20ii.070]
BBCH (plant growth stage) [1]: 58
NDVI (Normalized difference vegetative index) [1]: 0.518
NIR (Near infrared band reflectance) [1]: 4.59

Compound: COCCON1C(=O)C(c2c(C)cc(C)cc2C)=C(O)C12CCN(OC)CC2 [Compound T22ii.070]
BBCH (plant growth stage) [1]: 59
NDVI (Normalized difference vegetative index) [1]: 0.471
NIR (Near infrared band reflectance) [1]: 4.18

Compound: CCOC(=O)OC1=C(c2c(C)cc(Cl)cc2C)C(=O)N(C)C12CCN(OC)CC2 [T1.067, wherein G is CO2Et]
No. of root tips, Mean (in %) relative to check (Soybeans (Glycine max) [2]): 18.8%
Root length, Mean (in %) relative to check (Soybeans (Glycine max) [2]): 16.1%
Mean no. of pods per plant, only pods >20 mm (Soybeans (Glycine max) [2]): 3.4
Mean no. of pods per plant, all pods considered (Soybeans (Glycine max) [2]): 6.0
pod length - sum per trmt (mm), only pods >20 mm (Soybeans (Glycine max) [2]): 545 mm
pod length - sum per trmt (mm), all pods considered (Soybeans (Glycine max) [2]): 682 mm
water consumption (Soybeans (Glycine max) [3]): 376 ml/26 days
plant height (Soybeans (Glycine max) [3]): 16.5 cm
chlorophyll content (Soybeans (Glycine max) [3]): 43.4 reflectance
water consumption (Spring-wheat): 219 ml/26 days
plant height (Spring-wheat): 26.9 cm

Compound: CCOC(=O)OC1=C(c2c(C)cc(C)cc2C)C(=O)N(C)C12CCN(OC)CC2 [T1.070, wherein G is CO2Et]
No. of root tips, Mean (in %) relative to check (Soybeans (Glycine max) [2]): 43.7%
Root length, Mean (in %) relative to check (Soybeans (Glycine max) [2]): 32.0%
Mean no. of pods per plant, only pods >20 mm (Soybeans (Glycine max) [2]): 3.2
Mean no. of pods per plant, all pods considered (Soybeans (Glycine max) [2]): 5.8
pod length - sum per trmt (mm), only pods >20 mm (Soybeans (Glycine max) [2]): 516 mm
pod length - sum per trmt (mm), all pods considered (Soybeans (Glycine max) [2]): 674 mm
Stem thickness (mm) below respective leaf, Mean (Soybeans (Glycine max) [4]; 1st trifoliate leaf, untreated 2.04): 2.39 mm
leaf area (cm^2), Mean (Soybeans (Glycine max) [4]; 1st trifoliate leaf, untreated 42.95): 60.59 cm^2
Stem thickness (mm) below respective leaf, Mean (Soybeans (Glycine max) [4]; 1st true leaves, untreated 2.31): 2.87 mm
leaf area (cm^2), Mean (Soybeans (Glycine max) [4]; 1st true leaves, untreated 28.54): 39.82 cm^2
Stem thickness (mm) below respective leaf, Mean (Soybeans (Glycine max) [4]; 2nd trifoliate leaf, untreated 1.87): 2.09 mm
leaf area (cm^2), Mean (Soybeans (Glycine max) [4]; 2nd trifoliate leaf, untreated 58.76): 72.44 cm^2
Stem thickness (mm) below respective leaf, Mean (Soybeans (Glycine max) [4]; 3rd trifoliate leaf, untreated 1.60): 1.86 mm
leaf area (cm^2), Mean (Soybeans (Glycine max) [4]; 3rd trifoliate leaf, untreated 58.01): 77.72 cm^2
Stem thickness (mm) below respective leaf, Mean (Soybeans (Glycine max) [4]; 4th trifoliate leaf, untreated 1.11): 1.32 mm
leaf area (cm^2), Mean (Soybeans (Glycine max) [4]; 4th trifoliate leaf, untreated 18.09): 27.48 cm^2
Shoot growth (plant growth) (Soybeans (Glycine max) [4]; [5]): Enhanced plant growth was also observed by fortified shoot growth.
Visual impression of root system (Soybeans (Glycine max) [4]; [5]): clearly enhanced root system
Root parameters relative to check: Length (cm), rel. to check (0%) (Soybeans (Glycine max) [4]; [6]): 41.3%
Root parameters relative to check: RootVolume (cm3), rel. to check (0%) (Soybeans (Glycine max) [4]; [6]): 52.2%
Root parameters relative to check: SurfaceArea (cm2), rel. to check (0%) (Soybeans (Glycine max) [4]; [6]): 46.6%
Root parameters relative to check: Tips, rel. to check (0%) (Soybeans (Glycine max) [4]; [6]): 63.1%
water consumption (Soybeans (Glycine max) [3]): 393 ml/26 days
plant height (Soybeans (Glycine max) [3]): 17.3 cm
chlorophyll content (Soybeans (Glycine max) [3]): 39.9 reflectance
water consumption (Spring-wheat): 208 ml/26 days
plant height (Spring-wheat): 27.4 cm

Compound: CCOC(=O)OC1=C(c2c(C)cc(Br)cc2C)C(=O)NC12CCN(OC)CC2 [T1iii.66, wherein G is CO2Et]
av. plant height (cm) (Barley (Hordeum vulqare)): 27.2 cm
av. tillers per plant (Barley (Hordeum vulqare)): 4.2

Compound: CCOC(=O)OC1=C(c2c(C)cc(Cl)cc2C)C(=O)NC12CCN(OC)CC2 [T1iii.67, wherein G is CO2Et]
av. plant height (cm) (Barley (Hordeum vulqare)): 24.4 cm
av. tillers per plant (Barley (Hordeum vulqare)): 3.8
water consumption (Soybeans (Glycine max) [3]): 379 ml/26 days
plant height (Soybeans (Glycine max) [3]): 16.5 cm
chlorophyll content (Soybeans (Glycine max) [3]): 44.6 reflectance
water consumption (Spring-wheat): 218 ml/26 days
plant height (Spring-wheat): 27.9 cm

Compound: CCOC(=O)OC1=C(c2cc(C)ccc2C)C(=O)N(OCOC)C12CCN(OC)CC2 [T20ii.030, wherein G is CO2Et]
BBCH (plant growth stage) [1]: 59
NDVI (Normalized difference vegetative index) [1]: 0.522
NIR (Near infrared band reflectance) [1]: 4.45

Compound: CCOC(=O)OC1=C(c2c(C)cc(C)cc2C)C(=O)N(OCOC)C12CCN(OC)CC2 [T20ii.070, wherein G is CO2Et]
BBCH (plant growth stage) [1]: 59
NDVI (Normalized difference vegetative index) [1]: 0.539
NIR (Near infrared band reflectance) [1]: 4.65
